How the values were obtained:
ApoE = experiment: THP-1 Western blotting assay (ApoE); type: cell-based; conditions: 30 μM; for ApoE normalized with Vehicle treated (DMSO) Control: 18 hour, PMA-differentiated THP-1 cells, densitometry, control = 100; for Fold Difference: ApoE vs DMSO control, THP-1 cells
Experimental: THP-1 cells (2×10^6 cells/well) were differentiated with PMA (10 ng/mL) for 24 following which the cells were treated with different concentrations (30 μM and 10 μM) of compound for 18 hour in cell culture conditions (5% CO2, 37° C.). The cells were lysed using 1×RIPA (Cat #9806; Cell Signaling Technologies) buffer with Protease inhibitor (1×) (Cat #P830, Sigma) and sonicated. Whole cell lysate was collected and protein estimation was done using Bradford Reagent. The samples were subjected to SDS PAGE Electrophoresis and the protein bands were transferred onto PVDF membrane using wet transfer. The membrane was further blocked with 5% non-fat dry milk and incubated with primary antibody (ApoE; 1:1000, Cat #D7I9N, ABCA1; 1:1000, Cat #96292S; Cell Signaling Technologies) and secondary antibody (Anti rabbit IgG 1:2000, Cat #7074S, Cell Signaling Technologies). The membrane was then developed using ECL reagent (Ref. 32106, Thermo Fisher Scientific) in a gel doc system. The expression of protein was quantified by densitometry analysis.

MDA-MB-231 = experiment: Cell viability assay (resazurin) in MDA-MB-231; type: cell-based; conditions: Homo sapiens, 96 hr exposure, read-out: MDA_MB-231 Cell IC50
Experimental: (§1) HepG2 (ATCC® HB-8065™), hepatocellular carcinoma, A549 (ATCC® CCL-185™), lung epithelial carcinoma, MCF7 (ATCC® HTB-22™), mammary gland epithelial carcinoma, MDA-MB-231 (ATCC® HTB-26™), TNBC, MiaPaCa-2 (ATCC® CRL-1420™) & Panc-1 (ATCC® CRL-1469™), pancreatic epithelial carcinoma, HCT116 (ATCC® CCL-247™), colon epithelial carcinoma and U87MG (ATCC® HTB-14™), brain epithelial carcinoma cell lines respectively were seeded in the respective medium (DMEM, Cat #10569044 with 10% FBS, Cat #16000044; Gibco for HepG2, A549, MCF7, MDA-MB-231, MiaPaCa-2, Panc-1, HCT116 and MEM, Cat #11095080 with 10% FBS for U87MG). Cells were allowed to grow at 37° C. for 24 hr in 5% CO2 (culture conditions) in a Nuaire incubator (humidified). Serially diluted compounds (100 μl) were added to the culture plate 24 hr later and the cultures were further incubated in culture conditions for 96 hr. Experiment was terminated at the completion of 96 hr exposure to the drug by replacing the medium with 100 μl of 1 mM of resazurin (R7017; Sigma) prepared in culture medium and the plates were further incubated in culture conditions for 4 hr. Fluorescence was then measured using a multimodal plate reader (Biotek Synergy Neo) at an excitation wavelength of 535 nm and emission wavelength of 590 nm to obtain relative fluorescence units. Data analysis was done by subtracting the background fluorescence (only medium blank) value from each reading and then normalizing with the vehicle control (DMSO treated cells) to obtain percent survival/proliferation. Percent survival at different doses was used to calculate IC50 by fitting the curve to the “four-parameter variable slope logistic model” using Prism Graph Pad.

LXR beta = target: T1, LXR beta (Homo sapiens, UniProt P55055); experiment: LXR beta agonist assay (Lanthascreen TR-FRET); type: biochemical; conditions: LXR beta-LBD 5 nM, read-out: LXR-β EC50
T1 construct: 5 μL of 4×LXR beta-LBD was added to each well (final concentration 5 nM); purchased Thermofisher PV4658
T1 sequence (P55055 222-460 limits assumed): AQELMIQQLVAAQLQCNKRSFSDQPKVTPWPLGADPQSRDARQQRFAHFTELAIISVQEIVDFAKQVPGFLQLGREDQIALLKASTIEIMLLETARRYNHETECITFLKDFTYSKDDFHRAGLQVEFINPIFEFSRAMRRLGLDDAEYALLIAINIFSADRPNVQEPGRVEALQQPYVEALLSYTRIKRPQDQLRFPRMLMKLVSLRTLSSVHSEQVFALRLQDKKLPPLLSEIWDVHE
Procedure, shortened: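 TR-FRET coactivator recruitment: 5 nM LXR beta-LBD with 100 nM Fl-D22 peptide and 10 nM Tb-anti-GST antibody (final) in Coregulator Buffer G, 60 min at 22° C, read hourly up to 4 hours. Duplicate three-fold titrations from 30 μM; EC50 by variable-slope nonlinear regression.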

A549 = experiment: Cell viability assay (resazurin) in A549; type: cell-based; conditions: Homo sapiens, 96 hr exposure
Experimental: as §1

HepG2 = experiment: Cell viability assay (resazurin) in HepG2; type: cell-based; conditions: Homo sapiens, 96 hr exposure
Experimental: as §1

LXR alpha = target: T2, LXR alpha (Homo sapiens, UniProt Q13133); experiment: LXR alpha agonist assay (Lanthascreen TR-FRET); type: biochemical; conditions: LXR alpha-LBD 2.5 nM, read-out: LXR-α EC50
T2 construct: 5 μL of 4×LXR alpha-LBD was added to each well (final concentration 2.5 nM); purchased Thermofisher PV4655
T2 sequence (Q13133 209-447 limits assumed): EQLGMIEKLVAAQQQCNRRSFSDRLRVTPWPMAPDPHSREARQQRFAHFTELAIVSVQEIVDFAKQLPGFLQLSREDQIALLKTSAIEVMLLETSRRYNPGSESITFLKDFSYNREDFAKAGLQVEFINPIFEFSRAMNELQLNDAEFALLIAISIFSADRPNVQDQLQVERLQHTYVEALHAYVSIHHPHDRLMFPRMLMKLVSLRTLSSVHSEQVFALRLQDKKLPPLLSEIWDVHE
Experimental: EC50 values of compounds against LXR alpha were determined at Integral BioSciences (India) using Lanthascreen TR-FRET (Thermofisher, Cat #PV4655). Assay was performed in a 20 μL final volume in a Black 384-well plate (Corning, Cat #4511). Dose response curve for the compounds were prepared in duplicates with starting concentration at 30 μM and a three-fold titration was performed. The reaction buffer consisted of TR-FRET Coregulator Buffer H. To the compound dilution, 5 μL of 4×LXR alpha-LBD was added to each well (final concentration 2.5 nM). An equal volume (5 μL) containing 4×Fl-D22/Tb-anti GST antibody (final concentration 250 nM/10 nM) was added to initiate the enzyme reaction and the reaction was incubated for 60 min at 22° C. after which the plates were read using BioTek Plate reader for TR-FRET every hour up to 4 hours.
Analysis was done using the standard curve by non-linear regression, variable slope inhibitor curve fits (Graph-Pad Prism) and EC50's of compounds were determined wherever possible.

THP1 = experiment: Cell viability assay in THP1; type: cell-based; conditions: Homo sapiens, THP-1
HCT116 = experiment: Cell viability assay (resazurin) in HCT116; type: cell-based; conditions: Homo sapiens, HCT-116; 96 hr exposure
Experimental: as §1

mouse splenocytes = experiment: Mouse splenocytes cytotoxicity assay (CTG); type: cell-based; conditions: Splenocyte, CD3e/CD28 activated Balb/c splenocytes, 72 hr
Experimental: IC50 values to look at cytotoxicity of compounds on CD3e/CD28 induced splenocytes, was determined in mouse splenocytes isolated from Balb/c mice. Mouse splenocytes (2.5×10^5 cells/well/160 μl) were activated with Anti-mouse CD3e (0.5 μg/mL, coated overnight at 4° C.; Cat #14-0032-82, eBiosciences) and then incubated with serial dilutions of compounds (3 fold, 8 point dose response starting at 30 μM) and treated with Anti-mouse CD28 (1 μg/mL soluble; Cat #16-0289-81, eBiosciences). Splenocytes were further incubated under cell culture conditions for 72 hr after which assay was terminated by addition of CTG. Plate was incubated for 15 min at 37° C., 5% CO2 and luminescence was measured.

MCF7 = experiment: Cell viability assay (resazurin) in MCF7; type: cell-based; conditions: Homo sapiens, 96 hr exposure
Experimental: as §1

| SMILES | ApoE normalized with Vehicle treated (DMSO) Control (ApoE) | Fold Difference (ApoE) | IC50 (MDA-MB-231) [µM] | EC50 (LXR beta) [µM] | IC50 (A549) [µM] | IC50 (HepG2) [µM] | EC50 (LXR alpha) [µM] | IC50 (THP1) [µM] | IC50 (HCT116) [µM] | IC50 (mouse splenocytes) [µM] | IC50 (MCF7) [µM] |
| --- | --- | --- | --- | --- | --- | --- | --- | --- | --- | --- | --- |
| CN(C)C(=O)c1ccc(NC2CN(C3CCN(C(=O)[C@@](O)(c4ccccc4)C(F)(F)F)CC3)C2)cc1Cl (single isomer, unassigned) [Compound 1.10] | 221.8 | 2.22 | > 30 | 0.141 | > 30 | > 29.6 | 26.1 |  |  |  |  |
| CC(C)[C@@](O)(C(=O)N1CCC(N2CC(Nc3ccc(C(=O)N(C)C)c(Cl)c3)C2)CC1)C(F)(F)F (single isomer, unassigned) [Compound 1.44] | 156.5 | 1.57 | > 30 | 10.9 | > 30 |  | > 30 | > 30 | > 30 |  |  |
| CC(C)[C@](O)(C(=O)N1CCC(N2CC(Nc3ccc(C(=O)N(C)C)c(Cl)c3)C2)CC1)C(F)(F)F (single isomer, unassigned) [Compound 1.45] | 132.1 | 1.32 | > 30 | 1.21 | > 30 |  | > 30 | > 30 | > 30 |  |  |
| O=c1[nH]ccc2cc(N3CCC(C4CCN(S(=O)(=O)c5ccccc5Cl)CC4)CC3)cc(Cl)c12 [Compound 1.16, 8-chloro-6-(1′-((2-chlorophenyl)sulfonyl)-[4,4′-bipiperidin]-1-yl)isoquinolin-1(2H)-one] |  |  |  |  |  |  |  |  |  | 14.9 |  |
| CN(C)C(=O)c1ccc(NC2CN(C3CCN(C(=O)C(F)(F)c4ccccc4Cl)CC3)C2)cc1Cl [Compound 1.52, 2-chloro-4-(1-(1-(2-(2-chlorophenyl)-2,2-difluoroacetyl)piperidin-4-yl)azetidin-3-ylamino)-N,N-dimethylbenzamide] |  |  | > 30 | 5.68 | > 30 | > 30 |  | > 30 | > 30 |  | > 30 |
| CN(C)C(=O)c1ccc(N[C@H]2CCCN(C3CCN(C(=O)[C@](O)(c4ccccc4)C(F)(F)F)CC3)C2)cc1Cl [Compound 1.53, 2-chloro-N,N-dimethyl-4-((S)-1′-((R)-3,3,3-trifluoro-2-hydroxy-2-phenylpropanoyl)-1,4′-bipiperidin-3-ylamino)benzamide] |  |  | > 30 | 16.9 | > 30 | > 30 |  | > 30 | > 30 |  | > 30 |
| CC(C)C(O)(C(=O)N1CCC2(CC1)CN(C1CCN(c3ccc(C(=O)N(C)C)c(Cl)c3)CC1)C2)C(F)(F)F (centres unmarked) [Compound 1.54, 2-chloro-4-(4-(7-(2-hydroxy-3-methyl-2-(trifluoromethyl)butanoyl)-2,7-diazaspiro[3.5]nonan-2-yl)piperidin-1-yl)-N,N-dimethylbenzamide] |  |  | > 30 | > 30 | > 30 | > 30 |  | > 30 | > 30 |  | > 30 |
| CN(C)C(=O)c1ccc(N2CCC(N3CC4(CN(C(=O)[C@](O)(c5ccccc5)C(F)(F)F)C4)C3)CC2)cc1Cl [Compound 1.55, 2-chloro-N,N-dimethyl-4-(4-(6-((R)-3,3,3-trifluoro-2-hydroxy-2-phenylpropanoyl)-2,6-diazaspiro[3.3]heptan-2-yl)piperidin-1-yl)benzamide] |  |  | > 30 | 16.3 | > 30 | > 30 |  | > 30 | > 30 |  | > 30 |
| CN(C)C(=O)c1ccc(NC2CN(C3CCN(C(=O)C4(c5c(F)cccc5Cl)CCCC4)CC3)C2)cc1Cl [Compound 1.56, 2-chloro-4-(1-(1-(1-(2-chloro-6-fluorophenyl)cyclopentanecarbonyl)piperidin-4-yl)azetidin-3-ylamino)-N,N-dimethylbenzamide] |  |  | 13.8 |  | 12.4 | 12.9 |  | 14.5 | 12.4 |  | 12.8 |
| CN(C)C(=O)c1ccc(N[C@@H]2CCN(C3CCN(C(=O)[C@](O)(c4ccccc4)C(F)(F)F)CC3)C2)cc1Cl [Compound 1.57, 2-chloro-N,N-dimethyl-4-((R)-1-(1-((R)-3,3,3-trifluoro-2-hydroxy-2-phenylpropanoyl)piperidin-4-yl)pyrrolidin-3-ylamino)benzamide] |  |  | > 30 | 2.82 | > 30 | > 30 |  | > 30 | > 30 |  | > 30 |
| CC(C)C(O)(C(=O)N1CCC(N2CC[C@@H](Nc3ccc(C(=O)N(C)C)c(Cl)c3)C2)CC1)C(F)(F)F (stereo partly drawn) [Compound 1.58, 2-chloro-4-((3R)-1-(1-(2-hydroxy-3-methyl-2-(trifluoromethyl)butanoyl)piperidin-4-yl)pyrrolidin-3-ylamino)-N,N-dimethylbenzamide] |  |  | > 30 |  | > 30 | > 30 |  | > 30 | > 30 |  | > 30 |
